Results: patent US6855836B2, “17-Methylene steroids, process for their production and pharmaceutical compositions that contain these compounds” (Jenapharm GmbH & Co. KG, priority 2000, dated 2005)

Columns and labels:
[1] = target: T1, Progesterone-receptor (Oryctolagus cuniculus, UniProt P06186); experiment: Progesterone-receptor binding to uterus-cytosol, tracer 3H-ORG 2058; details: rabbits, primed, 0-4° C., 18 hours, reference progesterone = 100%
T1 construct: from tissue; host or cells: uterus cytosol of primed rabbits
T1 sequence (P06186 1-930): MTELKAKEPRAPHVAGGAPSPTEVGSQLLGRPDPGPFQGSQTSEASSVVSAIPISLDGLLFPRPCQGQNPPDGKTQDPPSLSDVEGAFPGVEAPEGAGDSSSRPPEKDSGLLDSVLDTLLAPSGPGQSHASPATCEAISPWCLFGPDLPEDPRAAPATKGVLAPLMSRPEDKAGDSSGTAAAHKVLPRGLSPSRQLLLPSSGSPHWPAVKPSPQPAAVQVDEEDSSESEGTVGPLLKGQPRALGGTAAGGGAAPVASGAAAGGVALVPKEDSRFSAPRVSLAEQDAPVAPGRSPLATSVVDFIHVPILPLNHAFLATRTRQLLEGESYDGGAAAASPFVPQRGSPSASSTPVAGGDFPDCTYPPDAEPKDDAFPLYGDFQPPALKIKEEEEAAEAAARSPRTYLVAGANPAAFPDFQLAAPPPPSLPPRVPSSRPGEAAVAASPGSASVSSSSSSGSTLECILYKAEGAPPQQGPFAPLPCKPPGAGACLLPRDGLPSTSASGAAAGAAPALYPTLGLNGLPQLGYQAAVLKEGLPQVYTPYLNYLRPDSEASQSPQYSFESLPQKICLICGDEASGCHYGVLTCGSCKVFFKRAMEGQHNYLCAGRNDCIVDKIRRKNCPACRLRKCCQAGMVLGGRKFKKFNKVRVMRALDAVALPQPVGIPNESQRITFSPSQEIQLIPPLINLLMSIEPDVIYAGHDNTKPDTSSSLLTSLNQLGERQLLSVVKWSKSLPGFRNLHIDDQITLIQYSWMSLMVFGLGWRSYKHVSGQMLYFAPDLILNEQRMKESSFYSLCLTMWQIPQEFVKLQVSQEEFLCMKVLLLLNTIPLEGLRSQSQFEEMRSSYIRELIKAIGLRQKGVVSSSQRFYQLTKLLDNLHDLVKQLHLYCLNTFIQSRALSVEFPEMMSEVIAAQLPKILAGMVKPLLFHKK

[2] = target: T2, 5α-Reductase-Type 2 (Homo sapiens, UniProt P31213); experiment: 5α-Reductase-type 2-activity in genital dermal homogenates; assay type: biochemical; details: optimized conditions at pH 5.5
T2 construct: 5α-Reductase-Type 2-Activity in Genital Dermal Homogenates; from tissue; host or cells: genital dermal (skin) homogenate
T2 sequence (P31213 1-254): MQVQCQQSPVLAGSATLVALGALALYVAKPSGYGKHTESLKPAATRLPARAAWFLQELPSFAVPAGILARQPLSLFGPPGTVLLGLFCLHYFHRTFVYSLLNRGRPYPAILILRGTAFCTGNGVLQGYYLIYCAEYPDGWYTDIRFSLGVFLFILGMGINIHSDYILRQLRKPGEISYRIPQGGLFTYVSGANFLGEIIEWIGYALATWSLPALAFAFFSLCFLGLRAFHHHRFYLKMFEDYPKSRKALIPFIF
Description: (§1) Data for 5α-reductase-type 2-activity in genital dermal homogenates and in vivo data for gestagenic activity are presented by way of example in Tables 1 and 2 below.

[3] = test system: pregnancy maintenance; experiment: Mouse pregnancy maintenance test after s.c. administration (gestagenic activity); assay type: in vivo
Description: as §1

## C[C@]12CC[C@H]3[C@@H](CCC4=C(Cl)C(=O)CC[C@@H]43)[C@@H]1CC/C2=C\Cl [Compound 1, E-17-Chloromethylene-4-chloro-estr-4-en-3-one]
[1]
  PR, Progesterone = 100% (progesterone-receptor binding): 60%
[2]
  IC50: 250 nM
[3]; 0.1 mg/animal/day s.c.
  Pregnancy rate achieved: 0/5
[3]; 1.0 mg/animal/day s.c.
  Pregnancy rate achieved: 5/5
